Experimental data as given in patent publication US20260325533A1, “CDK INHIBITOR COMPOUNDS” (ALEKSIA THERAPEUTICS, INC., priority 2023, published 2026).
Like-named read-outs stand apart in the source and are kept apart here.

Columns and labels:
Assay type in all cases: biochemical
[1] = target: CDK1/CCNB1 (Homo sapiens, UniProt P06493); experiment: CDK1 homogeneous time-resolved fluorescence (HTRF) kinase assay; settings: CDK1/CCNB
Summary of the method: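 Compounds, titrated 11 points in half-log steps typically from 10 μM, were incubated with enzyme for 20 min before ATP (1 mM) and ULight-labelled eIF4E-binding protein 1 peptide (50 nM) started a 60-min reaction at 23 °C. Phosphopeptide was detected by europium-antibody TR-FRET and IC50 values were derived.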

[2] = target: CDK6/CCND1 (Homo sapiens, UniProt Q00534); experiment: CDK6 homogeneous time-resolved fluorescence (HTRF) kinase assay; settings: CDK6/CCND, 1 mM ATP
Summary of the method: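 Enzyme pre-incubated 20 min at 23 °C with compound, then reacted 60 min at 23 °C with 1 mM ATP and 50 nM ULight-4E-BP1 (Thr37/46) peptide; 1 nM enzyme, 1% DMSO. EDTA-stopped, Eu-anti-phospho antibody TR-FRET read (665 nm or 665/615 ratio); 11-point half-log titration from 10 μM gave IC50.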

[3] = target: CDK2/CCNE1 (Homo sapiens, UniProt P24941); experiment: CDK2 homogeneous time-resolved fluorescence (HTRF) kinase assay; settings: CDK2/CCNE
Summary of the method: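 Compounds were titrated 11-point, half-log from typically 10 μM against 3 nM CDK2/cyclin E1 at 1 mM ATP, with a 20 min enzyme preincubation. Phosphorylation of 50 nM ULight-4E-BP1 peptide over 60 min at 23 °C was detected by europium anti-phospho antibody TR-FRET.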

[4] = target: CDK4/CCND3 (Homo sapiens, UniProt P11802); experiment: CDK4 homogeneous time-resolved fluorescence (HTRF) kinase assay; settings: CDK4/CCND
Summary of the method: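 CDK4/CCND3 at 1.5 nM was preincubated with compound for 20 min at 23 °C, then reacted for 60 min with 1 mM ATP and 50 nM ULight-4E-BP1 (Thr37/46) peptide. The reaction was stopped with EDTA, and phosphorylation was read by HTRF with a Eu-anti-phospho antibody. IC50 values came from 11-point half-log titrations, typically from 10 μM.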

[5] = >250 nM, read-out: CDK1/CCNB IC50 >250 nM
[6] = 25-250 nM, read-out: CDK6/CCND IC50, 25-250 nM
[7] = <25 nM, read-out: CDK2/CCNE IC50, <25 nM
[8] = >250 nM, read-out: CDK4/CCND IC50, >250 nM
[9] = >250 nM, read-out: CDK6/CCND IC50, >250 nM
[10] = 25-250 nM, read-out: CDK1/CCNB IC50, 25-250 nM
[11] = 25-250 nM, read-out: CDK4/CCND IC50, 25-250 nM
[12] = 25-250 nM, read-out: CDK2/CCNE IC50, 25-250 nM

Sequence of CDK4/CCND3 (P11802 whole entry): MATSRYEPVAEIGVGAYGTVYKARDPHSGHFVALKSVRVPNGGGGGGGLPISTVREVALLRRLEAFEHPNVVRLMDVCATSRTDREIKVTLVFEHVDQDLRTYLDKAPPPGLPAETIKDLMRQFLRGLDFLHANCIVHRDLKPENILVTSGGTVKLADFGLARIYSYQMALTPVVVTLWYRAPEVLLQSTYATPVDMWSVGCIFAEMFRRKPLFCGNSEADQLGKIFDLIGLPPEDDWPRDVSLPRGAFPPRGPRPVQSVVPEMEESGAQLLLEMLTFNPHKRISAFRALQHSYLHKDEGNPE
Sequence of CDK4/CCND3 (P30281 whole entry partner): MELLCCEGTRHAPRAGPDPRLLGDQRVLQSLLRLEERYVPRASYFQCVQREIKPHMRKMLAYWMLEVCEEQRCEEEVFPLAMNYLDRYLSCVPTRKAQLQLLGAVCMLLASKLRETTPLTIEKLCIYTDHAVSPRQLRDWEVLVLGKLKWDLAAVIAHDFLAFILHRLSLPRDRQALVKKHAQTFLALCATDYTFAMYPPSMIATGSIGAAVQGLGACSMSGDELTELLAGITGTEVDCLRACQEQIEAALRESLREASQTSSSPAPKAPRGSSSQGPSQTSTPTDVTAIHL
Sequence of CDK6/CCND1 (Q00534 whole entry): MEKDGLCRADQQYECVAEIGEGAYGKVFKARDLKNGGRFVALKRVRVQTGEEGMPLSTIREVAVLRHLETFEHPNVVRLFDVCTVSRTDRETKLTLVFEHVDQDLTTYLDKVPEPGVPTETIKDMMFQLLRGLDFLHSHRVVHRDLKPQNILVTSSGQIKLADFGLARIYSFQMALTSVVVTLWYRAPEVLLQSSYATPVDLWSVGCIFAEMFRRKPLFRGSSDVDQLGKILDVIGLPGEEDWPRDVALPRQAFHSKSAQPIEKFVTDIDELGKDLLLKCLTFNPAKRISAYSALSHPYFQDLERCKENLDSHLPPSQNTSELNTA
Sequence of CDK6/CCND1 (P24385 whole entry partner): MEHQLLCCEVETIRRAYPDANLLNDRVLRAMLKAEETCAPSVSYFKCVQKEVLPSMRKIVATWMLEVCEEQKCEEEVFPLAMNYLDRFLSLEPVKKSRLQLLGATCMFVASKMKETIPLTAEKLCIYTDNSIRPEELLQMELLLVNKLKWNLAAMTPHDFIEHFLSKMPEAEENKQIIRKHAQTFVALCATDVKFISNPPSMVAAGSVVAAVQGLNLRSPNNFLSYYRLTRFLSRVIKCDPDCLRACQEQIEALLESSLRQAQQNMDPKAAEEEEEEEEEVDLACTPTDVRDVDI
Sequence of CDK1/CCNB1 (P06493 whole entry): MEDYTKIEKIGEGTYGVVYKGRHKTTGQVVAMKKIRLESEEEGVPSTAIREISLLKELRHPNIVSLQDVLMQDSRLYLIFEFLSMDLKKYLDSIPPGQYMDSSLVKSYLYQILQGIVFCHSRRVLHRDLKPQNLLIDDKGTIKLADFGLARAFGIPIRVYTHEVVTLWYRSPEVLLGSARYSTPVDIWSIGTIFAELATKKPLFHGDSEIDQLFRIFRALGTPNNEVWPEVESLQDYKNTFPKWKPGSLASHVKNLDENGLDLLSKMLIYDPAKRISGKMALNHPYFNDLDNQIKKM
Sequence of CDK1/CCNB1 (P14635 whole entry partner): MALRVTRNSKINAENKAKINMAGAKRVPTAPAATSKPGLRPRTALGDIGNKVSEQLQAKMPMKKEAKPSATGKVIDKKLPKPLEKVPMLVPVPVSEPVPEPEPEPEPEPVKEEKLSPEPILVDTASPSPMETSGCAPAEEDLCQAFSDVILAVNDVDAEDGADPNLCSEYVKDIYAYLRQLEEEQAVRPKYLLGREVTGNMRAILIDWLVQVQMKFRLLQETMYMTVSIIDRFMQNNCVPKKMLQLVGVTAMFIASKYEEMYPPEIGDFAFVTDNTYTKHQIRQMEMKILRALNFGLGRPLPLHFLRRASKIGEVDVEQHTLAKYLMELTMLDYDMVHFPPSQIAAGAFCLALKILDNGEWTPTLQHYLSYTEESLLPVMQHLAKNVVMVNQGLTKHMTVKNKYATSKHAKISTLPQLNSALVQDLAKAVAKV

| Structure (SMILES) | IC50 [1, 5] | IC50 [2, 6] | IC50 [3, 7] | IC50 [4, 8] | IC50 [2, 9] | IC50 [1, 10] | IC50 [4, 11] | IC50 [3, 12] | IC50 ([3]; >250 nM, read-out: CDK2/CCNE IC50, >250 nM) |
| --- | --- | --- | --- | --- | --- | --- | --- | --- | --- |
| Cc1c(-c2nccc3cnc(Nc4ccc(S(=O)(=O)Nc5cccc(C(F)(F)F)n5)cc4)cc23)ccc2c1cnn2CC(C)(C)O [Ex 815, 4-((5-(1-(2-hydroxy-2-methylpropyl)-4-methyl-1H-indazol-5-yl)-2,6-naphthyridin-3-yl)amino)-N-(6-(trifluoromethyl)pyridin-2-yl)benzenesulfonamide] |  |  | < 25 nM | > 250 nM | > 250 nM | 25 to 250 nM |  |  |  |
| Cc1c(-c2nccc3cnc(Nc4ccc(NS(=O)(=O)c5cccc6nonc56)cc4)cc23)ccc2c1cnn2CC(C)(C)O [Ex 821, N-(4-((5-(1-(2-hydroxy-2-methylpropyl)-4-methyl-1H-indazol-5-yl)-2,6-naphthyridin-3-yl)amino)phenyl)benzo[c][1,2,5]oxadiazole-4-sulfonamide] | > 250 nM |  | < 25 nM | > 250 nM | > 250 nM |  |  |  |  |
| Cc1c(-c2nccc3cnc(Nc4ccc(NS(=O)(=O)c5cncc(Cl)c5)cc4)cc23)ccc2c1cnn2CC(C)(C)O [Ex 822, 5-chloro-N-(4-((5-(1-(2-hydroxy-2-methylpropyl)-4-methyl-1H-indazol-5-yl)-2,6-naphthyridin-3-yl)amino)phenyl)pyridine-3-sulfonamide] | > 250 nM |  | < 25 nM | > 250 nM | > 250 nM |  |  |  |  |
| Cc1ccc(S(=O)(=O)Nc2ccc(Nc3cc4c(-c5ccc6c(cnn6CC(C)(C)O)c5C)nccc4cn3)cc2)cn1 [Ex 823, N-(4-((5-(1-(2-hydroxy-2-methylpropyl)-4-methyl-1H-indazol-5-yl)-2,6-naphthyridin-3-yl)amino)phenyl)-6-methylpyridine-3-sulfonamide] |  | 25 to 250 nM | < 25 nM |  |  | 25 to 250 nM | 25 to 250 nM |  |  |
| Cc1c(-c2nccc3cnc(Nc4ccc(NS(=O)(=O)c5cnn(-c6ccccn6)c5)cc4)cc23)ccc2c1cnn2CC(C)(C)O [Ex 824, N-(4-((5-(1-(2-hydroxy-2-methylpropyl)-4-methyl-1H-indazol-5-yl)-2,6-naphthyridin-3-yl)amino)phenyl)-1-(pyridin-2-yl)-1H-pyrazole-4-sulfonamide] | > 250 nM |  |  | > 250 nM | > 250 nM |  |  | 25 to 250 nM |  |
| Cc1c(-c2nccc3cnc(Nc4ccc(NS(=O)(=O)c5ccoc5)cc4)cc23)ccc2c1cnn2CC(C)(C)O [Ex 825, N-(4-((5-(1-(2-hydroxy-2-methylpropyl)-4-methyl-1H-indazol-5-yl)-2,6-naphthyridin-3-yl)amino)phenyl)furan-3-sulfonamide] |  | 25 to 250 nM | < 25 nM |  |  | 25 to 250 nM | 25 to 250 nM |  |  |
| Cc1nn(-c2ccccc2)c(C)c1S(=O)(=O)Nc1ccc(Nc2cc3c(-c4ccc5c(cnn5CC(C)(C)O)c4C)nccc3cn2)cc1 [Ex 826, N-(4-((5-(1-(2-hydroxy-2-methylpropyl)-4-methyl-1H-indazol-5-yl)-2,6-naphthyridin-3-yl)amino)phenyl)-3,5-dimethyl-1-phenyl-1H-pyrazole-4-sulfonamide] | > 250 nM |  |  | > 250 nM | > 250 nM |  |  |  | > 250 nM |
| Cc1c(-c2nccc3cnc(Nc4ccc(NS(=O)(=O)c5ccc(Cl)s5)cc4)cc23)ccc2c1cnn2CC(C)(C)O [Ex 827, 5-chloro-N-(4-((5-(1-(2-hydroxy-2-methylpropyl)-4-methyl-1H-indazol-5-yl)-2,6-naphthyridin-3-yl)amino)phenyl)thiophene-2-sulfonamide] | > 250 nM |  |  | > 250 nM | > 250 nM |  |  | 25 to 250 nM |  |
| Cc1c(-c2nccc3cnc(Nc4ccc(NS(=O)(=O)c5cn(C)cn5)cc4)cc23)ccc2c1cnn2CC(C)(C)O [Ex 828, N-(4-((5-(1-(2-hydroxy-2-methylpropyl)-4-methyl-1H-indazol-5-yl)-2,6-naphthyridin-3-yl)amino)phenyl)-1-methyl-1H-imidazole-4-sulfonamide] |  | 25 to 250 nM | < 25 nM |  |  | 25 to 250 nM | 25 to 250 nM |  |  |
| CCc1ccc(S(=O)(=O)Nc2ccc(Nc3cc4c(-c5ccc6c(cnn6CC(C)(C)O)c5C)nccc4cn3)cc2)s1 [Ex 829, 5-ethyl-N-(4-((5-(1-(2-hydroxy-2-methylpropyl)-4-methyl-1H-indazol-5-yl)-2,6-naphthyridin-3-yl)amino)phenyl)thiophene-2-sulfonamide] | > 250 nM |  | < 25 nM | > 250 nM | > 250 nM |  |  |  |  |
| Cc1nn(C)c(C)c1S(=O)(=O)Nc1ccc(Nc2cc3c(-c4ccc5c(cnn5CC(C)(C)O)c4C)nccc3cn2)cc1 [Ex 830, N-(4-((5-(1-(2-hydroxy-2-methylpropyl)-4-methyl-1H-indazol-5-yl)-2,6-naphthyridin-3-yl)amino)phenyl)-1,3,5-trimethyl-1H-pyrazole-4-sulfonamide] | > 250 nM |  | < 25 nM | > 250 nM | > 250 nM |  |  |  |  |
| Cc1c(-c2nccc3cnc(Nc4ccc(NS(=O)(=O)c5ccsc5)cc4)cc23)ccc2c1cnn2CC(C)(C)O [Ex 831, N-(4-((5-(1-(2-hydroxy-2-methylpropyl)-4-methyl-1H-indazol-5-yl)-2,6-naphthyridin-3-yl)amino)phenyl)thiophene-3-sulfonamide] | > 250 nM |  | < 25 nM | > 250 nM | > 250 nM |  |  |  |  |

Continued, values first:

| IC50 [1, 5] | IC50 [2, 6] | IC50 [3, 7] | IC50 [4, 8] | IC50 [2, 9] | IC50 [1, 10] | IC50 [4, 11] | IC50 [3, 12] | IC50 ([3]; >250 nM, read-out: CDK2/CCNE IC50, >250 nM) | Structure (SMILES) |
| --- | --- | --- | --- | --- | --- | --- | --- | --- | --- |
| > 250 nM | 25 to 250 nM | < 25 nM | > 250 nM |  |  |  |  |  | COc1ccnc(NS(=O)(=O)c2ccc(Nc3cc4c(-c5ccc6c(cnn6CC(C)(C)O)c5C)nccc4cn3)cc2)c1 [Ex 813, 4-((5-(1-(2-hydroxy-2-methylpropyl)-4-methyl-1H-indazol-5-yl)-2,6-naphthyridin-3-yl)amino)-N-(4-methoxypyridin-2-yl)benzenesulfonamide] |
| > 250 nM |  | < 25 nM | > 250 nM | > 250 nM |  |  |  |  | COc1cc(NS(=O)(=O)c2ccc(Nc3cc4c(-c5ccc6c(cnn6CC(C)(C)O)c5C)nccc4cn3)cc2)nc(OC)c1 [Ex 814, N-(4,6-dimethoxypyridin-2-yl)-4-((5-(1-(2-hydroxy-2-methylpropyl)-4-methyl-1H-indazol-5-yl)-2,6-naphthyridin-3-yl)amino)benzenesulfonamide] |
| > 250 nM |  | < 25 nM | > 250 nM | > 250 nM |  |  |  |  | Cc1c(-c2nccc3cnc(Nc4ccc(S(=O)(=O)Nc5cc(C(F)(F)F)ccn5)cc4)cc23)ccc2c1cnn2CC(C)(C)O [Ex 816, 4-((5-(1-(2-hydroxy-2-methylpropyl)-4-methyl-1H-indazol-5-yl)-2,6-naphthyridin-3-yl)amino)-N-(4-(trifluoromethyl)pyridin-2-yl)benzenesulfonamide] |
| > 250 nM | 25 to 250 nM | < 25 nM |  |  |  | 25 to 250 nM |  |  | Cc1cccc(NS(=O)(=O)c2ccc(Nc3cc4c(-c5ccc6c(cnn6CC(C)(C)O)c5C)nccc4cn3)cc2)n1 [Ex 817, 4-((5-(1-(2-hydroxy-2-methylpropyl)-4-methyl-1H-indazol-5-yl)-2,6-naphthyridin-3-yl)amino)-N-(6-methylpyridin-2-yl)benzenesulfonamide] |
| > 250 nM | 25 to 250 nM | < 25 nM |  |  |  | 25 to 250 nM |  |  | Cc1cc(C)nc(NS(=O)(=O)c2ccc(Nc3cc4c(-c5ccc6c(cnn6CC(C)(C)O)c5C)nccc4cn3)cc2)c1 [Ex 818, N-(4,6-dimethylpyridin-2-yl)-4-((5-(1-(2-hydroxy-2-methylpropyl)-4-methyl-1H-indazol-5-yl)-2,6-naphthyridin-3-yl)amino)benzenesulfonamide] |
| > 250 nM |  |  | > 250 nM | > 250 nM |  |  | 25 to 250 nM |  | Cc1c(-c2nccc3cnc(Nc4ccc(NS(=O)(=O)c5cccc6nsnc56)cc4)cc23)ccc2c1cnn2CC(C)(C)O [Ex 819, N-(4-((5-(1-(2-hydroxy-2-methylpropyl)-4-methyl-1H-indazol-5-yl)-2,6-naphthyridin-3-yl)amino)phenyl)benzo[c][1,2,5]thiadiazole-4-sulfonamide] |
| > 250 nM |  |  | > 250 nM | > 250 nM |  |  | 25 to 250 nM |  | Cc1c(-c2nccc3cnc(Nc4ccc(NS(=O)(=O)c5cccc6nn(C)cc56)cc4)cc23)ccc2c1cnn2CC(C)(C)O [Ex 820, N-(4-((5-(1-(2-hydroxy-2-methylpropyl)-4-methyl-1H-indazol-5-yl)-2,6-naphthyridin-3-yl)amino)phenyl)-2-methyl-2H-indazole-4-sulfonamide] |
